For test [1], the target named is Vascular endothelial growth factor receptor 2 (Homo sapiens, UniProt P35968).
Test [2] deals with Epidermal growth factor receptor (Homo sapiens, UniProt P00533).
The target in test [3] is Platelet-derived growth factor receptor beta (Homo sapiens, UniProt P09619).
For test [4], the target named is Fibroblast growth factor receptor 1 (Homo sapiens, UniProt P11362). The experiment in a line: Inhibitory activity against Fibroblast growth factor receptor 1.

Molecules are shown by their SMILES.

Epidermal growth factor receptor, sequence (P00533 whole entry): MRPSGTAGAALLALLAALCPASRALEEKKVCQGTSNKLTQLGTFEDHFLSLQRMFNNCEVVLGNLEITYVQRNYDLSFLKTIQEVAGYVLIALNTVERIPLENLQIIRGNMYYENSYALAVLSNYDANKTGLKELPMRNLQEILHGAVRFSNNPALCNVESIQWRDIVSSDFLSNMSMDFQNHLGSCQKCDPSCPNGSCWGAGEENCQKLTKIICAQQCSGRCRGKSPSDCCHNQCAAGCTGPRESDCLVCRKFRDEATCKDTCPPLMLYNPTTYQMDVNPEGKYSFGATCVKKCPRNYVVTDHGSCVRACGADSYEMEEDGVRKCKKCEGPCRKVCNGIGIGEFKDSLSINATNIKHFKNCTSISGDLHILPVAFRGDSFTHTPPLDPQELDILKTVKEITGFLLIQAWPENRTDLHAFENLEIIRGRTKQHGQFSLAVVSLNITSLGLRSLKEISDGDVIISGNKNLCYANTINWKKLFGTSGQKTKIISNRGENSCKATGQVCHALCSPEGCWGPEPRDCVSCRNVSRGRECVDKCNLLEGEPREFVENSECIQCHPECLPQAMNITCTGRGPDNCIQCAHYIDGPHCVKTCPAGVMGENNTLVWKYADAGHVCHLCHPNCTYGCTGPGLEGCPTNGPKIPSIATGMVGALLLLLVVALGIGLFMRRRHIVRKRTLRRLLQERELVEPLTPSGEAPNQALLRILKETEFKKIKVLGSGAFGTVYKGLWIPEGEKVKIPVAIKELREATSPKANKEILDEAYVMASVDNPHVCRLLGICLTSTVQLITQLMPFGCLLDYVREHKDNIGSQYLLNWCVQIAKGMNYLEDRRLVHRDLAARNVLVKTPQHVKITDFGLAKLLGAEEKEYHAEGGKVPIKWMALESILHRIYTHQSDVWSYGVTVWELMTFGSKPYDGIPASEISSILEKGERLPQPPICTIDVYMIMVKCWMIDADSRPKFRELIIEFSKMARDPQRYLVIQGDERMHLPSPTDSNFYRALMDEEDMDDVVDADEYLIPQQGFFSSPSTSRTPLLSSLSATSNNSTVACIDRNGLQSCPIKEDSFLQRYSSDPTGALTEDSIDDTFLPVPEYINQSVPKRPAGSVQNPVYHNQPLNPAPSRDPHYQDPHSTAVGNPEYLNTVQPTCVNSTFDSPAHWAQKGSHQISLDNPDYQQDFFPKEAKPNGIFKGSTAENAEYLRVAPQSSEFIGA
Platelet-derived growth factor receptor beta, sequence (P09619 whole entry): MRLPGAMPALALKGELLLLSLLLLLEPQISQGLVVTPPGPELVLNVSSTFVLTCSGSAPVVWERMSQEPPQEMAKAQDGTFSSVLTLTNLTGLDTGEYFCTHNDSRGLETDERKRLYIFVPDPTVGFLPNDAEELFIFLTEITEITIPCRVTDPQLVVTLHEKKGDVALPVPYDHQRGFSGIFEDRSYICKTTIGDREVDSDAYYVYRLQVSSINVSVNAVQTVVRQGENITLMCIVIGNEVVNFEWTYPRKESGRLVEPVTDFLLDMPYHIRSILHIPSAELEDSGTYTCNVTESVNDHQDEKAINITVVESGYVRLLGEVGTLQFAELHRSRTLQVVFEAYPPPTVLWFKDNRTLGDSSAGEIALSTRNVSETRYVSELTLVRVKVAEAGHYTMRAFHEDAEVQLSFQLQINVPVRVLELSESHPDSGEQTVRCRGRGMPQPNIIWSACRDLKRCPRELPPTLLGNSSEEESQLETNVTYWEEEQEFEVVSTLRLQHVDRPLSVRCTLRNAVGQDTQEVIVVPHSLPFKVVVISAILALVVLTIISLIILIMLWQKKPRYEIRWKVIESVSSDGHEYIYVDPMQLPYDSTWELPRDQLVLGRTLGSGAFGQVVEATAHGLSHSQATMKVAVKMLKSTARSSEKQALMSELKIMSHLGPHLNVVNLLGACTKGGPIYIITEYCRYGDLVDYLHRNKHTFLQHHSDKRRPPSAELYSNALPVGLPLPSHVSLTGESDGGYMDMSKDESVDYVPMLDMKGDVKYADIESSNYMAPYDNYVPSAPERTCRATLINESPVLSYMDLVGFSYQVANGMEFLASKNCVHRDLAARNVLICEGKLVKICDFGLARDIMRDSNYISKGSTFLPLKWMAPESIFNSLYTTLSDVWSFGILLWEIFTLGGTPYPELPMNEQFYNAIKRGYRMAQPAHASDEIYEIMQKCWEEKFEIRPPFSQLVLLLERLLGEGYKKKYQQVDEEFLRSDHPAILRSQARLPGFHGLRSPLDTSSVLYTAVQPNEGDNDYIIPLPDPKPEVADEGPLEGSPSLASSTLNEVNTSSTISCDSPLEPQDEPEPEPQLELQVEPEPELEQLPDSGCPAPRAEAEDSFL
Fibroblast growth factor receptor 1, sequence (P11362 whole entry): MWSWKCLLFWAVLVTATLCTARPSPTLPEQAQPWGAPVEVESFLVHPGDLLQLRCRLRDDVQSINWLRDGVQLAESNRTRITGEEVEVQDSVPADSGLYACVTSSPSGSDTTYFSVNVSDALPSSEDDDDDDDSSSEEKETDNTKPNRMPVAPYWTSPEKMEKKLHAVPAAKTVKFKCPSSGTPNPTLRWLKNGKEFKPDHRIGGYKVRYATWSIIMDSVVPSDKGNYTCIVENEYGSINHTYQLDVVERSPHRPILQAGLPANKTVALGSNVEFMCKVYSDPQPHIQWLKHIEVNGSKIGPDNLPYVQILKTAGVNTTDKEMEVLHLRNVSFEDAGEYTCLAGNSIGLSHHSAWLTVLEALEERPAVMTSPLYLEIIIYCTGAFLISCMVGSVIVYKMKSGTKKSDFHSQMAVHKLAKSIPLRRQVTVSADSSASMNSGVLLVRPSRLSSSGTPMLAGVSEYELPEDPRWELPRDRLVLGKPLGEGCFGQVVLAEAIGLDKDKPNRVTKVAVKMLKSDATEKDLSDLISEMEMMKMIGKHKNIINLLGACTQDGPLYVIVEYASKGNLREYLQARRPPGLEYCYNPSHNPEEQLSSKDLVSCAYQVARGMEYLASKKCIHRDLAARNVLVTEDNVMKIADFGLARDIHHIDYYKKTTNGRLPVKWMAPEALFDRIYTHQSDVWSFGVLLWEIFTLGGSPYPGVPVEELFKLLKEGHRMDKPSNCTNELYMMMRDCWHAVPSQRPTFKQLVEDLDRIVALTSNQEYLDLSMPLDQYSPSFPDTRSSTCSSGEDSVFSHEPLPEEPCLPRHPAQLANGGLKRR
Vascular endothelial growth factor receptor 2, sequence (P35968 whole entry): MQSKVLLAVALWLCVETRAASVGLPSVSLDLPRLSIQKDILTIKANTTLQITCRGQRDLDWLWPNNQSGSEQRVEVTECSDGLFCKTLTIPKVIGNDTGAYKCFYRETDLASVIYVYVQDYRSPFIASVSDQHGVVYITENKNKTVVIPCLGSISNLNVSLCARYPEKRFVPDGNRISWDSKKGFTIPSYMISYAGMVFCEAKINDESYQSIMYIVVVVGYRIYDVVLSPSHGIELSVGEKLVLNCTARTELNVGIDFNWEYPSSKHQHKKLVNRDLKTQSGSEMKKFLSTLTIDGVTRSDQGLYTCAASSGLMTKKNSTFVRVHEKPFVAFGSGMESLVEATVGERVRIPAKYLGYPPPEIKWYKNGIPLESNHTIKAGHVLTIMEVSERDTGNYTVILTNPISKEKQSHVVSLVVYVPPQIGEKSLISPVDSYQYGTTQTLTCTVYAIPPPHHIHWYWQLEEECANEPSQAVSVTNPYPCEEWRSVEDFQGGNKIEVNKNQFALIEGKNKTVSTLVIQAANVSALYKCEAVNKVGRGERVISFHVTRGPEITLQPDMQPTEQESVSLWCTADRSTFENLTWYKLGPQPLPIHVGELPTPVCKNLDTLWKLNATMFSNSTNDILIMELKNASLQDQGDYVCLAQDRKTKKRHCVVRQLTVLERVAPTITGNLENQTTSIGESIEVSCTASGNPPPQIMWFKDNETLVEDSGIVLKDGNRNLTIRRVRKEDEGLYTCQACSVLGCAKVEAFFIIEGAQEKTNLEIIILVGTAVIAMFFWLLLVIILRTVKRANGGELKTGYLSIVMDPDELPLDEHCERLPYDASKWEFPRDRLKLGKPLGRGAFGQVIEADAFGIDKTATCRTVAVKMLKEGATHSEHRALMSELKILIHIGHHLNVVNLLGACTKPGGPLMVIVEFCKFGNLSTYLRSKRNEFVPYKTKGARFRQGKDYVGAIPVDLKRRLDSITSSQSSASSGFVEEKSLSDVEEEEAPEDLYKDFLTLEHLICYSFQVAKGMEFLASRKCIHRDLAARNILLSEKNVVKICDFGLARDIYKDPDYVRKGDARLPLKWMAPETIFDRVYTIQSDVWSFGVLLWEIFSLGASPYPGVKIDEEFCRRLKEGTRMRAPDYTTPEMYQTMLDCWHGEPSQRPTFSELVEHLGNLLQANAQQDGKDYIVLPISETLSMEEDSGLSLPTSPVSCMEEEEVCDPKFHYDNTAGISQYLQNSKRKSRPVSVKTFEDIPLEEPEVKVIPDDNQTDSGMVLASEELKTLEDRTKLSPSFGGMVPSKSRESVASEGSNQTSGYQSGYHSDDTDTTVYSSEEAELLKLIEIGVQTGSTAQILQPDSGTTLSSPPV

For orientation: IC50 means the midpoint of a concentration-inhibition curve. Regarding `Cc1c(CCC(=O)O)c[nH]c1/C=C1\C(=O)Nc2ccc(C(=O)O)cc21`, the IC50 in test [1] is 240 nM; in test [2], above 100000 nM; in test [3] it was 4190 nM; in test [4], 770 nM.
Compound `Cc1c[nH]c(/C=C2\C(=O)Nc3ccc(Br)cc32)c1CCC(=O)O` displayed an IC50 in test [2] above 100000 nM.
Take `COc1cccc(-c2ccc3c(c2)NC(=O)/C3=C\c2[nH]c(C)c(CCC(=O)O)c2C)c1`: the IC50 in test [1] is 300 nM; in test [2], above 100000 nM; in test [3] it was 100 nM; in test [4] it was 1400 nM.
The like results for `Cc1[nH]c(/C=C2\C(=O)Nc3cc(-c4ccccc4)ccc32)c(C)c1CCC(=O)O` were, in that order, 140 nM, above 100000 nM, 10 nM and 2290 nM.
In the case of `COc1cccc(-c2ccc3c(c2)NC(=O)/C3=C\c2[nH]cc(CCC(=O)O)c2C)c1`, the IC50 in test [1] is 90 nM; in test [2], above 100000 nM; in test [3] it was 170 nM; in test [4], 360 nM.
Consider `COc1ccc(-c2ccc3c(c2)NC(=O)/C3=C\c2[nH]c(C)c(CCC(=O)O)c2C)cc1`, for which the IC50 in test [1] is 520 nM; in test [2], above 100000 nM; in test [3], 1000 nM; in test [4], 5760 nM.
`CCOc1cccc(-c2ccc3c(c2)NC(=O)/C3=C\c2[nH]cc(C)c2CCC(=O)O)c1`: the figures for the IC50 in test [2] and in test [4] were above 100000 nM and 4500 nM, respectively.
Turning to `Cc1[nH]c(/C=C2\C(=O)Nc3ccc(C(=O)O)cc32)c(C)c1CCC(=O)O`, the IC50 in test [1] is 70 nM; in test [2] it was above 100000 nM; in test [3], 1210 nM; in test [4] it was 280 nM.
The like results for `COc1ccc(-c2ccc3c(c2)NC(=O)/C3=C\c2[nH]cc(CCC(=O)O)c2C)cc1` were, in that order, 450 nM, above 100000 nM, 3080 nM and 1540 nM.
The like results for `COc1ccc2c(c1)NC(=O)/C2=C\c1[nH]c(C)c(CCC(=O)O)c1C` were, in that order, 8290 nM, above 100000 nM, 550 nM and 5400 nM.
The like results for `Cc1[nH]c(/C=C2\C(=O)Nc3ccc(Br)cc32)c(C)c1CCC(=O)O` were, in that order, 1730 nM, above 100000 nM, 60 nM and 2050 nM.
As for `Cc1[nH]c(/C=C2\C(=O)Nc3ccc(S(N)(=O)=O)cc32)c(C)c1CCC(=O)O`, the concentration for half-maximal inhibition (IC50) in test [1] was found to be 1260 nM; in test [3], 1530 nM; in test [4], 280 nM.
Consider `Cc1c(CCC(=O)O)c[nH]c1/C=C1\C(=O)Nc2cc(-c3ccccc3)ccc21`, for which the IC50 in test [1] is 300 nM; in test [2], above 100000 nM; in test [3] it was 160 nM; in test [4], 1050 nM.
For `COc1ccccc1-c1ccc2c(c1)NC(=O)/C2=C\c1[nH]cc(CCC(=O)O)c1C`, the IC50 in test [1] was 1470 nM; in test [2], above 100000 nM; in test [3], 1420 nM; in test [4], 2130 nM.
`COc1cccc(-c2ccc3c(c2)NC(=O)/C3=C\c2[nH]cc(C)c2CCC(=O)O)c1`: the IC50 was above 100000 nM in test [2], 450 nM in test [3] and 1200 nM in test [4].
For the compound `COc1ccc2c(c1)NC(=O)/C2=C\c1[nH]cc(CCC(=O)O)c1C`, the IC50 is 1350 nM in test [1], above 100000 nM in test [2], 140 nM in test [3] and 3890 nM in test [4].
The like results for `Cc1c[nH]c(/C=C2\C(=O)Nc3ccccc32)c1CCC(=O)O` were, in that order, 20 nM, above 100000 nM, 510 nM and 30 nM.
The like results for `COc1ccccc1-c1ccc2c(c1)NC(=O)/C2=C\c1[nH]c(C)c(CCC(=O)O)c1C` were, in that order, 4370 nM, above 100000 nM, 2220 nM and 7330 nM.
Regarding `Cc1c(CCC(=O)O)c[nH]c1/C=C1\C(=O)Nc2ccccc21`, the IC50 in test [1] was 2140 nM; in test [2], above 100000 nM; in test [3], 140 nM; in test [4], 3680 nM.
As for `Cc1c(CCC(=O)O)c[nH]c1/C=C1\C(=O)Nc2ccc(S(N)(=O)=O)cc21`, the IC50 in test [1] was 920 nM; in test [2] it was above 100000 nM; in test [3], 5980 nM; in test [4], 460 nM.
Take `Cc1c[nH]c(/C=C2\C(=O)Nc3cccc(C)c32)c1CCC(=O)O`: the IC50 in test [2] was above 100000 nM.
Consider `Cc1[nH]c(/C=C2\C(=O)Nc3ccccc32)c(C)c1CCC(=O)O` [ORANTINIB], for which the IC50 in test [3] stood at 60 nM.

The values are drawn from ChEMBL document CHEMBL1132535, “Design, synthesis, and evaluations of substituted 3-[(3- or 4-carboxyethylpyrrol-2-yl)methylidenyl]indolin-2-ones as inhibitors of VEGF, FGF, and PDGF receptor tyrosine kinases” (J Med Chem, 1999).
